Experimental data reported in patent US20020137929A1, “1 - (3-heterocyclylphenyl) isothiourea, -isourea, -guanidine and -amidine herbicidal agents” (Intellectual Property Department, BASF Aktiengesellschaft, priority 1998, published 2002).

What was measured:
ORYSAT (Rice, Tebonnet) [1] = assay: Preemergence herbicidal evaluation; assay type: in vivo, Oryza sativa, (L.) Tebonnet; conditions: rated 4-5 weeks after treatment
How it was run: (§1)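 Rating at 4–5 wk post-spray on a 0–9 visual scale vs control. Application: aqueous acetone, ~0.0156–0.500 kg/ha, to soil surface after seeding, preemergence.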

ORYSAT (Rice, Tebonnet) [2] = assay: Postemergence herbicidal evaluation; assay type: in vivo, Oryza sativa, (L.) Tebonnet; conditions: postemergence
How it was run: (§2)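 Herbicidal effect was judged by eye on a 0–9 scale covering stand, vigor, deformity, size and chlorosis, compared with controls, four to five weeks after seedlings about two weeks old were sprayed (40 psi, ~0.0156–0.500 kg/ha).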

CYPSE (Flatsedge) = assay: Preemergence weed control under flooded paddy conditions; assay type: in vivo, Cyperus serotinus; conditions: rated 3-4 weeks after treatment
How it was run: (§3)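 Visual injury scored 0-9 against control three to four weeks post-treatment, greenhouse-grown. Application: acetone/water (50/50) solutions dosed directly into flood water (1.5-3 cm over silt loam, planted top 0.5 cm), roughly 0.0313 to 0.500 kg/ha active ingredient.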

[3] = test system: CHEAL (Lambsquarters, Common); assay: Postemergence herbicidal evaluation; assay type: in vivo, Chenopodium album; conditions: postemergence
How it was run: as §2

CASOB (Sicklepod) = assay: Postemergence herbicidal evaluation; assay type: in vivo, Cassia obtusifolia; conditions: postemergence
How it was run: as §2

AMBEL (Ragweed, Common) = assay: Preemergence herbicidal evaluation; assay type: in vivo, Ambrosia artemisifolia; conditions: rated 4-5 weeks after treatment
How it was run: as §1

MOOVA (Monochoria) = assay: Preemergence weed control under flooded paddy conditions; assay type: in vivo, Monochoria vaginalis; conditions: rated 3-4 weeks after treatment
How it was run: as §3

GALAP (Galium) = assay: Postemergence herbicidal evaluation; assay type: in vivo, Galium aparine; conditions: postemergence
How it was run: as §2

ZEAMX (Corn, Field) = assay: Postemergence herbicidal evaluation; assay type: in vivo, Zea mays; conditions: postemergence
How it was run: as §2

[4] = test system: GLXMAW (Soybean, Williams); assay: Preemergence herbicidal evaluation; assay type: in vivo, Glycine max, (L.) Merr. cv Williams; conditions: rated 4-5 weeks after treatment
How it was run: as §1

SETVI (Foxtail, Green) = assay: Preemergence herbicidal evaluation; assay type: in vivo, Setaria viridis; conditions: rated 4-5 weeks after treatment
How it was run: as §1

CCOC(=O)CN1C(=O)C(C(=O)OC)SC1=Nc1cc(-n2c(=O)cc(C(F)(F)F)n(C)c2=O)c(F)cc1Cl (stereo not drawn) [Compound 128, 5-Carboxy-2-{{2-chloro-5-[3,6-dihydro-3-methyl-2,6-dioxo-4-(trifluoromethyl)-1(2H)-pyrimidinyl]-4-fluorophenyl}imino}-4-oxo-3-thiazolidineacetic acid, 3-ethyl methyl ester]
Preemergence herbicidal rating ORYSAT (ORYSAT (Rice, Tebonnet) [1]; rate 0.0156 kg/ha): 0.0 | Preemergence herbicidal rating ORYSAT (ORYSAT (Rice, Tebonnet) [1]; rate 0.0313 kg/ha): 0.0 | Preemergence herbicidal rating ORYSAT (ORYSAT (Rice, Tebonnet) [1]; rate 0.0625 kg/ha): 0.0 | Preemergence herbicidal rating ORYSAT (ORYSAT (Rice, Tebonnet) [1]; rate 0.1250 kg/ha): 0.0 | Preemergence herbicidal rating ORYSAT (ORYSAT (Rice, Tebonnet) [1]; rate 0.2500 kg/ha): 0.0 | Herbicidal rating ORYSAT (ORYSAT (Rice, Tebonnet) [2]; rate 0.0156 kg/ha): 1.5 | Herbicidal rating ORYSAT (ORYSAT (Rice, Tebonnet) [2]; rate 0.0313 kg/ha): 2.0 | Herbicidal rating ORYSAT (ORYSAT (Rice, Tebonnet) [2]; rate 0.0625 kg/ha): 2.5 | herbicidal effect rating, CYPSE (CYPSE (Flatsedge); 0.0625 kg/ha): 0.0 | herbicidal effect rating, CYPSE (CYPSE (Flatsedge); 0.2500 kg/ha): 3.0 | Herbicidal rating CHEAL ([3]; rate 0.0156 kg/ha): 4.0 | Herbicidal rating CHEAL ([3]; rate 0.0313 kg/ha): 9.0 | Herbicidal rating CHEAL ([3]; rate 0.0625 kg/ha): 9.0 | Herbicidal rating CASOB (CASOB (Sicklepod); rate 0.0156 kg/ha): 1.0 | Herbicidal rating CASOB (CASOB (Sicklepod); rate 0.0313 kg/ha): 1.0 | Herbicidal rating CASOB (CASOB (Sicklepod); rate 0.0625 kg/ha): 7.0 | Preemergence herbicidal rating AMBEL (AMBEL (Ragweed, Common); rate 0.0156 kg/ha): 0.0 | Preemergence herbicidal rating AMBEL (AMBEL (Ragweed, Common); rate 0.0313 kg/ha): 0.0 | Preemergence herbicidal rating AMBEL (AMBEL (Ragweed, Common); rate 0.0625 kg/ha): 0.0 | Preemergence herbicidal rating AMBEL (AMBEL (Ragweed, Common); rate 0.1250 kg/ha): 2.0 | Preemergence herbicidal rating AMBEL (AMBEL (Ragweed, Common); rate 0.2500 kg/ha): 3.0 | herbicidal effect rating, MOOVA (MOOVA (Monochoria); 0.0313 kg/ha): 6.0 | herbicidal effect rating, MOOVA (MOOVA (Monochoria); 0.0625 kg/ha): 7.0 | herbicidal effect rating, MOOVA (MOOVA (Monochoria); 0.1250 kg/ha): 9.0 | herbicidal effect rating, MOOVA (MOOVA (Monochoria); 0.2500 kg/ha): 9.0 | Herbicidal rating GALAP (GALAP (Galium); rate 0.0156 kg/ha): 1.0 | Herbicidal rating GALAP (GALAP (Galium); rate 0.0313 kg/ha): 1.0 | Herbicidal rating GALAP (GALAP (Galium); rate 0.0625 kg/ha): 3.0 | Herbicidal rating ZEAMX (ZEAMX (Corn, Field); rate 0.0156 kg/ha): 3.5 | Herbicidal rating ZEAMX (ZEAMX (Corn, Field); rate 0.0313 kg/ha): 4.0 | Herbicidal rating ZEAMX (ZEAMX (Corn, Field); rate 0.0625 kg/ha): 6.0 | Preemergence herbicidal rating GLXMAW ([4]; rate 0.0156 kg/ha): 0.0 | Preemergence herbicidal rating GLXMAW ([4]; rate 0.0313 kg/ha): 0.0 | Preemergence herbicidal rating GLXMAW ([4]; rate 0.0625 kg/ha): 0.0 | Preemergence herbicidal rating GLXMAW ([4]; rate 0.1250 kg/ha): 0.0 | Preemergence herbicidal rating GLXMAW ([4]; rate 0.2500 kg/ha): 0.0 | Preemergence herbicidal rating SETVI (SETVI (Foxtail, Green); rate 0.0156 kg/ha): 0.0 | Preemergence herbicidal rating SETVI (SETVI (Foxtail, Green); rate 0.0313 kg/ha): 1.0 | Preemergence herbicidal rating SETVI (SETVI (Foxtail, Green); rate 0.1250 kg/ha): 1.0 | Preemergence herbicidal rating SETVI (SETVI (Foxtail, Green); rate 0.2500 kg/ha): 7.0

Cc1ccccc1CN1C(=O)CSC1=Nc1cc(-n2c(=O)cc(C(F)(F)F)n(C)c2=O)c(F)cc1Cl [Compound 129, 3-{4-Chloro-2-fluoro-5-{[3-(o-methylbenzyl)-4-oxo-2-thiazolidinylidene]amino}phenyl}-1-methyl-6-(trifluoromethyl)-2,4 (1H,3H)-pyrimidinedione]
Preemergence herbicidal rating ORYSAT (ORYSAT (Rice, Tebonnet) [1]; rate 0.0156 kg/ha): 0.0 | Preemergence herbicidal rating ORYSAT (ORYSAT (Rice, Tebonnet) [1]; rate 0.0313 kg/ha): 0.0 | Preemergence herbicidal rating ORYSAT (ORYSAT (Rice, Tebonnet) [1]; rate 0.0625 kg/ha): 1.0 | Preemergence herbicidal rating ORYSAT (ORYSAT (Rice, Tebonnet) [1]; rate 0.1250 kg/ha): 1.0 | Preemergence herbicidal rating ORYSAT (ORYSAT (Rice, Tebonnet) [1]; rate 0.2500 kg/ha): 3.0 | Herbicidal rating ORYSAT (ORYSAT (Rice, Tebonnet) [2]; rate 0.0156 kg/ha): 2.5 | Herbicidal rating ORYSAT (ORYSAT (Rice, Tebonnet) [2]; rate 0.0313 kg/ha): 3.5 | Herbicidal rating ORYSAT (ORYSAT (Rice, Tebonnet) [2]; rate 0.0625 kg/ha): 3.0 | herbicidal effect rating, CYPSE (CYPSE (Flatsedge); 0.1250 kg/ha): 7.0 | herbicidal effect rating, CYPSE (CYPSE (Flatsedge); 0.2500 kg/ha): 9.0 | Herbicidal rating CHEAL ([3]; rate 0.0156 kg/ha): 5.0 | Herbicidal rating CHEAL ([3]; rate 0.0313 kg/ha): 9.0 | Herbicidal rating CHEAL ([3]; rate 0.0625 kg/ha): 9.0 | Herbicidal rating CASOB (CASOB (Sicklepod); rate 0.0156 kg/ha): 3.0 | Herbicidal rating CASOB (CASOB (Sicklepod); rate 0.0313 kg/ha): 4.0 | Herbicidal rating CASOB (CASOB (Sicklepod); rate 0.0625 kg/ha): 4.0 | Preemergence herbicidal rating AMBEL (AMBEL (Ragweed, Common); rate 0.0156 kg/ha): 0.0 | Preemergence herbicidal rating AMBEL (AMBEL (Ragweed, Common); rate 0.0313 kg/ha): 0.0 | Preemergence herbicidal rating AMBEL (AMBEL (Ragweed, Common); rate 0.0625 kg/ha): 0.0 | Preemergence herbicidal rating AMBEL (AMBEL (Ragweed, Common); rate 0.1250 kg/ha): 7.0 | Preemergence herbicidal rating AMBEL (AMBEL (Ragweed, Common); rate 0.2500 kg/ha): 7.0 | herbicidal effect rating, MOOVA (MOOVA (Monochoria); 0.0313 kg/ha): 6.0 | herbicidal effect rating, MOOVA (MOOVA (Monochoria); 0.0625 kg/ha): 7.0 | herbicidal effect rating, MOOVA (MOOVA (Monochoria); 0.1250 kg/ha): 9.0 | herbicidal effect rating, MOOVA (MOOVA (Monochoria); 0.2500 kg/ha): 9.0 | Herbicidal rating GALAP (GALAP (Galium); rate 0.0156 kg/ha): 2.0 | Herbicidal rating GALAP (GALAP (Galium); rate 0.0313 kg/ha): 4.0 | Herbicidal rating GALAP (GALAP (Galium); rate 0.0625 kg/ha): 4.0 | Herbicidal rating ZEAMX (ZEAMX (Corn, Field); rate 0.0156 kg/ha): 4.0 | Herbicidal rating ZEAMX (ZEAMX (Corn, Field); rate 0.0313 kg/ha): 4.5 | Herbicidal rating ZEAMX (ZEAMX (Corn, Field); rate 0.0625 kg/ha): 4.5 | Preemergence herbicidal rating GLXMAW ([4]; rate 0.0156 kg/ha): 0.0 | Preemergence herbicidal rating GLXMAW ([4]; rate 0.0313 kg/ha): 0.0 | Preemergence herbicidal rating GLXMAW ([4]; rate 0.0625 kg/ha): 2.0 | Preemergence herbicidal rating GLXMAW ([4]; rate 0.1250 kg/ha): 2.0 | Preemergence herbicidal rating GLXMAW ([4]; rate 0.2500 kg/ha): 4.0 | Preemergence herbicidal rating SETVI (SETVI (Foxtail, Green); rate 0.0156 kg/ha): 1.0 | Preemergence herbicidal rating SETVI (SETVI (Foxtail, Green); rate 0.0313 kg/ha): 1.0 | Preemergence herbicidal rating SETVI (SETVI (Foxtail, Green); rate 0.0625 kg/ha): 1.0 | Preemergence herbicidal rating SETVI (SETVI (Foxtail, Green); rate 0.1250 kg/ha): 6.0 | Preemergence herbicidal rating SETVI (SETVI (Foxtail, Green); rate 0.2500 kg/ha): 7.0
